Test results: ChEMBL document CHEMBL1221301, “SAR studies of non-zinc-chelating MMP-13 inhibitors: improving selectivity and metabolic stability” (Bioorg Med Chem Lett, 2010)

Legend:
[1] = Selectivity ratio of IC50 for MMP3 to IC50 for MMP13
[2] = Selectivity ratio of IC50 for MMP2 to IC50 for MMP13
[3] = Selectivity ratio of IC50 for MMP8 to IC50 for MMP13
[4] = biological target: Collagenase 3 (Homo sapiens, UniProt P45452)
[5] = Selectivity ratio of IC50 for MMP10 to IC50 for MMP13
[6] = system: Liver microsomes; assay: Metabolic stability in human liver microsomes; type: ADME, Microsome
[7] = Aqueous solubility of the compound at pH 4.5; type: physicochemical; conditions: aqueous medium
[8] = Volume of distribution at steady state in rat at 1 mg/kg, iv; type: ADME, organism-based; design: dose 1 mg/kg, route intravenous; conditions: in vivo, read-out: Vdss
[9] = Aqueous solubility of the compound at pH 7.4; type: physicochemical; conditions: aqueous medium
[10] = Half life in rat at 1 mg/kg, iv; type: ADME, organism-based; design: dose 1 mg/kg, route intravenous; conditions: in vivo
[11] = system: Rattus norvegicus; assay: Clearance in rat as % of liver blood flow at 1 mg/kg, iv; type: ADME, organism-based; design: dose 1 mg/kg, route intravenous; conditions: in vivo

## CNC(=O)[C@H](NC(=O)c1ccc(-c2cccc(CNC(=O)c3occc3C)c2)o1)C1CCCCC1
[1]
  Ratio IC50: > 110
[2]
  Ratio IC50: > 110
[3]
  Ratio IC50: > 110
[4]
  IC50: 180 nM
[5]
  Ratio IC50: 17

## CNC(=O)[C@H](NC(=O)c1ccc(-c2cccc(CNC(=O)c3ccncn3)c2)o1)C1CCCCC1
[2]
  Ratio IC50: 290
[3]
  Ratio IC50: > 2000
[4]
  IC50: 10 nM
[5]
  Ratio IC50: 9

## CNC(=O)[C@H](NC(=O)c1ccc(-c2cccc(CNC(=O)c3cc(C)n(C)n3)c2)o1)C1CCCCC1
[1]
  Ratio IC50: 51
[2]
  Ratio IC50: > 280
[3]
  Ratio IC50: > 280
[4]
  IC50: 72 nM
[5]
  Ratio IC50: 19

## CNC(=O)[C@H](NC(=O)c1ccc(-c2cccc(CNC(=O)c3cn4ccc(C)cc4n3)c2)o1)C1CCCCC1
[1]
  Ratio IC50: > 37
[2]
  Ratio IC50: > 37
[3]
  Ratio IC50: > 37
[4]
  IC50: 140 nM
[5]
  Ratio IC50: 32

## CNC(=O)[C@H](NC(=O)c1ccc(-c2cccc(CNC(=O)c3ncccc3C)c2)o1)C1CCCCC1
[1]
  Ratio IC50: 85
[2]
  Ratio IC50: > 200
[3]
  Ratio IC50: > 200
[4]
  IC50: 100 nM
[5]
  Ratio IC50: 31

## CNC(=O)[C@@H](NC(=O)c1ccc(-c2cccc(CNC(=O)c3cccc(C(F)(F)F)n3)c2)o1)C(C)C
[1]
  Ratio IC50: 1000
[2]
  Ratio IC50: > 3600
[3]
  Ratio IC50: > 3600
[6]
  Stability: 88%
[4]
  IC50: 6 nM
[5]
  Ratio IC50: 260

## CNC(=O)[C@H](NC(=O)c1ccc(-c2cccc(CNC(=O)c3ccnc(Cl)n3)c2)o1)C1CCCCC1
[2]
  Ratio IC50: 590
[3]
  Ratio IC50: > 7100
[4]
  IC50: 3 nM
[5]
  Ratio IC50: 27

## CNC(=O)[C@H](NC(=O)c1ccc(-c2cccc(CNC(=O)c3csc(C)n3)c2)o1)C1CCCCC1
[2]
  Ratio IC50: 310
[3]
  Ratio IC50: 1800
[4]
  IC50: 8 nM
[5]
  Ratio IC50: 7

## CNC(=O)[C@H](NC(=O)c1ccc(-c2cccc(CNC(=O)c3ccncc3)c2)o1)C1CCCCC1
[2]
  Ratio IC50: 310
[3]
  Ratio IC50: > 660
[4]
  IC50: 31 nM
[5]
  Ratio IC50: 4

## CNC(=O)[C@@H](NC(=O)c1ccc(-c2cccc(CNC(=O)c3ccnc(C(F)(F)F)n3)c2)o1)C(C)(C)O
[7]
  solubility: > 50 µg/mL
[8]
  Vd: 0.9 L/kg
[9]
  solubility: > 50 µg/mL
[6]
  Stability: 14%
[10]
  half-life: 57 min
[11]
  Fraction of Liver Blood Flow: 26%

## CNC(=O)[C@H](NC(=O)c1ccc(-c2cccc(CNC(=O)c3cccnc3)c2)o1)C1CCCCC1
[2]
  Ratio IC50: > 480
[3]
  Ratio IC50: 48
[4]
  IC50: 42 nM
[5]
  Ratio IC50: 7

## CCc1cncc(C(=O)NCc2cccc(-c3ccc(C(=O)N[C@@H](C(=O)NC)C4CCCCC4)o3)c2)c1
[1]
  Ratio IC50: > 170
[2]
  Ratio IC50: > 170
[3]
  Ratio IC50: > 170
[4]
  IC50: 29 nM
[5]
  Ratio IC50: 45

## CNC(=O)[C@@H](NC(=O)c1ccc(-c2cccc(CNC(=O)c3cccc(C(F)(F)F)n3)c2)o1)C(C)(C)O
[1]
  Ratio IC50: > 400
[2]
  Ratio IC50: > 770
[3]
  Ratio IC50: > 810
[6]
  Stability: 62%
[4]
  IC50: 25 nM
[5]
  Ratio IC50: 440

## CNC(=O)[C@H](NC(=O)c1ccc(-c2cccc(CNC(=O)c3ccn(C)n3)c2)o1)C1CCCCC1
[1]
  Ratio IC50: 33
[2]
  Ratio IC50: > 430
[3]
  Ratio IC50: > 820
[4]
  IC50: 24 nM
[5]
  Ratio IC50: 14

## CNC(=O)[C@H](NC(=O)c1ccc(-c2cccc(CNC(=O)c3ccccn3)c2)o1)C1CCCCC1
[1]
  Ratio IC50: 200
[2]
  Ratio IC50: > 2400
[3]
  Ratio IC50: > 2400
[4]
  IC50: 8 nM
[5]
  Ratio IC50: 65

## CNC(=O)[C@@H](NC(=O)c1ccc(-c2cccc(CNC(=O)c3cccc(C(F)(F)F)n3)c2)o1)C1CC1
[6]
  Stability: 60%

## CNC(=O)[C@@H](NC(=O)c1ccc(-c2cccc(CNC(=O)c3ccnc(C(F)(F)F)n3)c2)o1)C(C)C
[1]
  Ratio IC50: 200
[2]
  Ratio IC50: 850
[3]
  Ratio IC50: > 2100
[6]
  Stability: 70%
[4]
  IC50: 9 nM
[5]
  Ratio IC50: 50

## CNC(=O)[C@H](NC(=O)c1ccc(-c2cccc(CNC(C)=O)c2)o1)C1CCCCC1
[1]
  Ratio IC50: 3
[2]
  Ratio IC50: 5
[3]
  Ratio IC50: > 7
[4]
  IC50: 3300 nM
[5]
  Ratio IC50: 0.5

## CNC(=O)[C@@H](NC(=O)c1ccc(-c2cccc(CNC(=O)c3cccc(C(F)(F)F)n3)c2)o1)C1CCOCC1
[1]
  Ratio IC50: 330
[2]
  Ratio IC50: 1500
[3]
  Ratio IC50: 7100
[6]
  Stability: 83%
[5]
  Ratio IC50: 130

## CNC(=O)[C@H](NC(=O)c1ccc(-c2cccc(CNC(=O)c3cn4cccc(C)c4n3)c2)o1)C1CCCCC1
[1]
  Ratio IC50: > 45
[2]
  Ratio IC50: > 45
[3]
  Ratio IC50: > 45
[4]
  IC50: 110 nM
[5]
  Ratio IC50: 29

## CNC(=O)[C@H](NC(=O)c1ccc(-c2cccc(CNC(=O)c3ccco3)c2)o1)C1CCCCC1
[1]
  Ratio IC50: 15
[2]
  Ratio IC50: > 270
[3]
  Ratio IC50: > 270
[4]
  IC50: 75 nM
[5]
  Ratio IC50: 6

## CNC(=O)[C@@H](NC(=O)c1ccc(-c2cccc(CNC(=O)c3ccnc(C(F)(F)F)n3)c2)o1)C1CC1
[1]
  Ratio IC50: 540
[2]
  Ratio IC50: 580
[8]
  Vd: 1.2 L/kg
[3]
  Ratio IC50: > 560
[6]
  Stability: 69%
[10]
  half-life: 42 min
[4]
  IC50: 36 nM
[5]
  Ratio IC50: 170
[11]
  Fraction of Liver Blood Flow: 47%

## CNC(=O)[C@H](NC(=O)c1ccc(-c2cccc(CNC(=O)c3cccc(C)n3)c2)o1)C1CCCCC1
[1]
  Ratio IC50: 240
[2]
  Ratio IC50: > 4900
[3]
  Ratio IC50: > 4900
[4]
  IC50: 4 nM
[5]
  Ratio IC50: 87

## CNC(=O)[C@H](NC(=O)c1ccc(-c2cccc(CNC(=O)c3nccn3C)c2)o1)C1CCCCC1
[1]
  Ratio IC50: > 64
[2]
  Ratio IC50: > 64
[3]
  Ratio IC50: > 64
[4]
  IC50: 310 nM
[5]
  Ratio IC50: 9

## CNC(=O)[C@H](NC(=O)c1ccc(-c2cccc(CNC(=O)c3ccnc(C(F)(F)F)n3)c2)o1)C1CCCCC1
[1]
  Ratio IC50: > 2800
[2]
  Ratio IC50: > 2800
[3]
  Ratio IC50: > 2800
[6]
  Stability: 66%
[4]
  IC50: 7 nM
[5]
  Ratio IC50: 370

## CNC(=O)[C@H](NC(=O)c1ccc(-c2cccc(CNC(=O)c3cccc(C(F)(F)F)n3)c2)o1)C1CCCCC1
[1]
  Ratio IC50: > 2300
[2]
  Ratio IC50: > 2300
[3]
  Ratio IC50: > 2300
[6]
  Stability: 81%
[4]
  IC50: 9 nM
[5]
  Ratio IC50: > 2300

## CNC(=O)[C@@H](NC(=O)c1ccc(-c2cccc(CNC(=O)c3ccnc(C(F)(F)F)n3)c2)o1)C1CCOCC1
[1]
  Ratio IC50: 250
[2]
  Ratio IC50: 640
[3]
  Ratio IC50: > 11000
[6]
  Stability: 24%
[5]
  Ratio IC50: 100

## CNC(=O)[C@H](NC(=O)c1ccc(-c2cccc(CNC(=O)c3ccoc3C)c2)o1)C1CCCCC1
[1]
  Ratio IC50: 9
[2]
  Ratio IC50: > 61
[3]
  Ratio IC50: > 61
[4]
  IC50: 330 nM
[5]
  Ratio IC50: 8
